No end group written: not given here.
Assays:
[1] = system: HIV-1IIIB; experiment: HIV-1 antiviral (cytopathic effect) assay in CEM-SS cells; conditions: for antiviral activity of positive control compounds: HIV-1IIIB in CEM-SS cells; for reduction of the cytopathic effect (CPE) in HIV-1 infected CEM-SS cells: 10 micrograms per ml, HIV-1IIIB, MTS readout
[2] = system: Primary Human endothelial cells (HUVEC); experiment: Endothelial cell migration assay; type: cell-based; conditions: 10 micrograms per ml, 22 hours
[3] = system: hepatitis B virus (HBV) ayw strain; experiment: HBV experimental assay system (secreted HBV DNA, TaqMan PCR); type: cell-based; conditions: 10 micrograms per ml; HepG2-2.2.15 cells; HBV DNA after six days
[4] = system: HCMV strain AD169; experiment: HCMV plaque formation assay in MRC-5 cells; conditions: for inhibition of HCMV plaque formation as compared to the virus control experiment: 10 micrograms per ml, MRC-5 cells, 7-10 days
[5] = system: murine spleen cells; experiment: Th1/Th2 cytokine profiling assay; type: cell-based, mouse; conditions: 10 micrograms per ml; Ovalbumin-restimulated murine spleen cells; 72 hours
[6] = system: Streptococcus pneumoniae; experiment: Streptococcus pneumoniae assay; conditions: 10 micrograms per ml; visual reading
[7] = system: HUVEC; experiment: Endothelial tube formation assay; type: cell-based, human; conditions: 10 micrograms per ml, 20 hours
From the text: Positive control wes vehicle only.

Compound | antiviral activity of positive control compounds [1] | inhibition of the migration of human endothelial cells [2] [%] | reduction of the cytopathic effect (CPE) in HIV-1 infected CEM-SS cells [1] [%] | inhibition of HBV replication as compared to the virus control infection [3] [%] | inhibition of HCMV plaque formation as compared to the virus control experiment [4] | change of the production of IL-5 [5] | decrease of the production of IFN-γ [5] | increase (induction) of the production of TNF-α [5] | increase of the production of IL-2 [5] [%] | increase of the production of IL-4 [5] [%] | inhibition of the growth of Streptococcus pneumoniae [6] | inhibition of the tube formation of human endothelial cells [7] [%] | antiviral activity of positive control compound ([4]; positive control, HCMV in MRC-5 cells)
Cc1cn([C@H]2C[C@H](N=[N+]=[N-])[C@@H](CO)O2)c(=O)[nH]c1=O [AZT, zidovudine, reference compound] | expected levels of antiviral activity |  |  |  |  |  |  |  |  |  |  |  | 
His-Ser-Leu-Gly-Lys-Trp-Leu-Gly-His-Pro-Asp-Lys-Phe (HSLGKWLGHPDKF; printed: His-Ser-Leu-Gly-Lys-Trp-Leu-Gly-His-Pro-Asp-Lys-Phe) [Peptide 1] |  | 12 | 43.9 | 43.4 | did not inhibit | did not significantly change | did not significantly change | 21.2% | 106.5 | 117.8 | 100% | 10 | 
Pro-Gly-Thr-Cys-Glu-Ile-Cys-Ala-Tyr-Ala-Ala-Cys-Thr-Gly-Cys-OH (PGTCEICAYAACTGC-OH; cysteine pairing not given here) [Peptide 2] |  | 24 | 13.2 | 21.7 | did not inhibit | did not significantly change | 38% | did not significantly change | 35.5 | 43.8 | no effect | 10 | 
CC(C)(C)NC(=O)[C@@H]1CN(Cc2cccnc2)CCN1C[C@@H](O)C[C@@H](Cc1ccccc1)C(=O)N[C@H]1c2ccccc2C[C@H]1O [indinavir, reference compound] | expected levels of antiviral activity |  |  |  |  |  |  |  |  |  |  |  | 
Nc1nc(O)c2ncn(COC(CO)CO)c2n1 [Ganciclovir, reference compound] |  |  |  |  |  |  |  |  |  |  |  |  | expected levels of antiviral activity
